{"source": "patent US6132750A", "about": "(Coletica, priority 1998, dated 2000)", "test": "Inhibition of the Fe2+ induced radical degradation of hyaluronic acid (viscosity drop)", "settings": "for effect on the depolymerisation (radical cleavage) of hyaluronic acid in the presence of iron: in words; for Index of protection (%): hyaluronic acid 10 g/l, Fe2+ 620 ppm", "description": "The chelating microspheres prepared according to I2 are used to evaluate their capacity, via the trapping of ferrous iron Fe2+, to inhibit the radical degradation of hyaluronic acid, glycosarinoglycan implied in the moisturisation of the human dermis, which is therefore a particularly important target to protect in cosmetic and dermo-pharmaceutical applications.\nA 10 g/l solution of hyaluronic acid of high molecular weight (>1,000,000g/mol or Daltons) is prepared in demineralised water. To this solution is added an amount of Fe2+ of 620 ppm.\nOther chelating agents which are conventionally used in cosmetics were used and compared to the chelating microspheres, for their capacity to reduce the radical degradation of hyaluronic acid. Indices of protection, expressed in % of protection, are calculated by carrying out a ratio of the drop in viscosity observed by the presence of iron Fe2+ (620 ppm) in the presence of the chelating agent studied, and the drop in viscosity observed with and without iron Fe2+.", "data": [{"compound": "O=C(O)CN(CCN(CC(=O)O)CC(=O)O)CC(=O)O", "note": "[EDTA]", "values": [{"measurement": "effect on the depolymerisation (radical cleavage) of hyaluronic acid in the presence of iron", "value": "accelerated"}]}, {"compound": "Transferrin", "values": [{"measurement": "Index of protection (%)", "setting": "concentration used 125 mg/l", "value": 8.7, "unit": "%"}, {"measurement": "effect on the depolymerisation (radical cleavage) of hyaluronic acid in the presence of iron", "value": "accelerated"}]}, {"compound": "O/N=C(/C(=N/O)c1ccco1)c1ccco1", "note": "[2-furyldioxime]", "values": [{"measurement": "Index of protection (%)", "setting": "concentration used 1.56 g/l", "value": 23.5, "unit": "%"}, {"measurement": "Index of protection (%)", "setting": "concentration used 9.37 g/l", "value": 50, "unit": "%"}]}, {"compound": "NO", "note": "[Hydroxylamine]", "values": [{"measurement": "Index of protection (%)", "setting": "concentration used 6.25 g/l", "value": 0, "unit": "%"}]}]}
